Reference: patent US20090247634A1, “Methods for identifying modulators of eoxin formation” (priority 2006, published 2009)
Several values for one entry are separate records, joined by “and”; a condition that tells them apart may be missing. Equal entries are not always repeated.

Assays:
[1] = tested on: cord blood derived mast cells; assay: Biosynthesis of 14,15-LTC4 in IL-4 primed cord blood derived mast cells (EIA); assay type: cell-based, human; conditions: arachidonic acid (10 μM), 5 min, n=3
Experimental: Mast cells play a key role in the pathophysiology of asthma. Recently, we reported that interleukin-4 (IL-4) induced the expression of 15-LO-1 in human cord blood derived mast cells in vitro and that mast cells express 15-LO-1 in vivo (4). Therefore, it was of interest to investigate if mast cells could produce 14,15-leukotrienes. IL-4 primed mast cells were incubated with arachidonic acid (10 μM) for 5 min. Supernatants were collected and analyzed using an EIA against 14,15-LTC4. Under these conditions, human mast cells released 0.8+/−0.6 pmol/10^6 cells, (n=3), indicating the capacity to synthesise and release immunoreactive 14,15-LTC4 after arachidonic acid stimulation.
Prior to incubation, CBMC cells were primed for four days with IL-4 (10 ng/ml). After mechanical removal and washing in PBS, cells were resuspended in PBS and pre-incubated with or without indomethacin (1 μM) for 2 minutes in 37° C. The CBMC cells were subsequently incubated in 37° C. with arachidonic acid for indicated time periods. Incubations were terminated either by addition of one volume of methanol (LC-MS analysis) or by rapid cool off, 0° C., and subsequently analyzed by EIA.

eosinophils [2] = assay: Biosynthesis of 14,15-LTC4 and LTC4 in eosinophils (RP-HPLC); assay type: cell-based, human; conditions: arachidonic acid (10 μM), 5 min, 37° C.; one line per donor 1-11
Experimental: (§1) Human eosinophils contain abundant amounts of both 15-lipoxygenase and 5-lipoxygenase. […] The cells were incubated for five minutes at 37° C. and the amounts of 14,15-LTC4 and LTC4 were analyzed with RP-HPLC. […] Therefore, measurement of these metabolites is considered to reflect the total formation of 15-lipoxygenase derived cysteinyl-containing 14,15-leukotrienes and 5-lipoxygenase derived cysteinyl-containing leukotriens, respectively.
Isolated eosinophils (1-20×10^6/sample) were resuspended in phosphate buffered saline (1 ml/sample) and pre-incubated for 2 minutes in 37° C. (in presence or absence of indomethacin, 1 μM) prior to stimulation with ionophore A23187 (1 μM)/arachidonic acid (1 or 10 μM)/A23187 plus arachidonic acid/PGD2 (1 μM)/LTC4 (1 μM)/IL-5 (10 ng/ml)/14,15-LTC4 (10 μM) or 14,15-LTD4 (10 μM) for indicated time periods at 37° C. The incubations were terminated by addition of one volume of methanol (for analysis by RP-HPLC). For subsequent analysis by enzyme immunoassay (EIA), reactions were terminated by rapid cool off, 0° C., before centrifugation at 1200×g, 5 min. Supernatants were transferred to cryo tubes and stored in −70° C. until analyzed.
In order to get rid of cellular debris and proteins, centrifugation at 1200×g for 5 min. was performed. Supernatants were evaporated under reduced pressure and the residues resolved in methanol and transferred to a test tube. Samples were thereafter evaporated to dryness under a stream of nitrogen, and finally resuspended in 200 μl mobile phase (acetonitril:methanol:H20:acetic acid, 29:19:72:0.8, pH adjusted to 5.6 with NH3 for analysis of leukotrienes and 14,15-leukotrienes, and methanol:water:trifluoroacetic acid 70:30:0.007 for analysis of monohydroxy acids). The extracted samples were subjected to analysis in a reverse phase HPLC system as described. Briefly, samples were applied to a octadecyl reverse phase column (Chromabond ^18C, Macherey-Nagel, Duren, Germany) and elution rate was 1.2 ml/minute.

[3] = tested on: human endothelial cell (EC) monolayers; assay type: cell-based; conditions: no granulocytes present
Excerpt: To explore the ability of 14,15-LTC4 and its metabolites 14,15-LTD4 and 14,15-LTE4 to induce alterations in vascular permeability, an established in vitro permeability assay based on assessment of changes in electrical resistance across human endothelial cell (EC) monolayers was used. Maximum stimulus-induced change in EC resistance in this model reaches down to approximately −70%.
Human umbilical vein endothelial cells (HUVEC) were isolated and cultured as previously described (24). The cells were seeded onto 3 μm pore size polycarbonate filters (Tissue Culture inserts, 10 mm; NUNC, Roskilde, Denmark) at a density of 2×10^5 cells and grown to confluent monolayers. The capacity of arachdonic acid metabolites to induce changes in barrier function of endothelial cell (EC) monolayers was analyzed through continuous registration of transendothelial electrical resistance (TEER) (24). For measurement of TEER, the filter insert with ECs was transferred to a resistance measurement chamber (Endohm-12, World Precision Instruments, Sarasota, Fla., USA) modified so as to assure exact positioning of the electrodes in relation to each other and to the filter insert during repeated measurements. […] The electrical resistance of individual EC monolayers was obtained by subtracting the resistance of the corresponding naked filter coated with Biomatrix as measured prior to seeding of the EC. […]

neutrophils = assay: Oxidative metabolism of neutrophils, lucigenin-enhanced chemiluminescence; assay type: cell-based, human
Experimental: Neutrophil and eosinophil granulocytes were purified from peripheral whole blood using a Percoll gradient and the magnetic cell separation system (MACS).
Granulocytes were primed for 30 minutes at 37° C. with either IL-5 (10.5 ng/mL) or GM-CSF (10.5 ng/mL) and subsequently stimulated with IL-5 (100 ng/mL), GM-CSF (100 ng/mL), LTB4 (10^−7M) or Eoxin (10^−8-10^−6M). Oxidative metabolism was measured by a lucigenin-enhanced chemiluminescence (CL) assay.

[4] = tested on: guinea pig pulmonary parenchymal strip or ileum; conditions: cited from earlier work
[5] = tested on: confluent bovine endothelium cells; assay: Endothelial cell barrier function (TEER), Example 6a; assay type: cell-based
Experimental: Bovine aorta endothelial cells (BAEC) and human umbilical vein endothelial cells (HUVEC) were isolated and cultured with calf serum or human serum. BAEC or HUVEC in the first to fifth passages were detached by brief (2 min) trypsin-EDTA treatment (0.25% trypsin/0.01% EDTA) and replated onto 3.0 μm pore size polycarbonate filters (Tissue Culture inserts, 10 mm; NUNC, Roskilde, Denmark) or, for the purpose of visual inspection, 0.2 μm pore size Anopore inorganic membrane (transparent when wet). In order to promote cellular differentiation and enhance attachment of EC, the filters were pretreated with 50 μl Biomatrix 1 (167 μg/ml) and air-dried. EC were seeded at a density of 2×10^5 cells per filter and incubated in culture medium at 37° C. in a humidified atmosphere of 5% CO2 in air. The EC were grown to confluent monolayers, as assessed by daily microscopic observation, in transparent 0.2 μm pore size filters and measurement of the electrical resistance across the monolayer. Under these experimental conditions maximal resistance is obtained at day 7 postseeding, at which day the EC monolayers were then used in the experiments.
Rapid changes in endothelial cell (EC) barrier function in response to various arachidonic acid metabolites were analysed through continuous registration of transendothelial electrical resistance (TEER) with electrodes on each side of EC monolayer^18. For measurement of TEER, the filter insert with ECs was transferred to a resistance measurement chamber (Endohm-12, World Precision Instruments, Sarasota, Fla., USA) modified so as to assure exact positioning of the electrodes in relation to each other and to the filter insert daring repeated measurements. The chamber (low compartment) and the filter insert (upper compartment) were filled with 2 ml and 400 μl culture medium, respectively. All measurements were made at 37° C. with the equipment placed in a cell culture incubator. Direct readings of the electrical resistance were given by an ohmmeter (Evom, World Precision Instruments, Sarasota, Fla., US) connected to the electrodes of the resistance chamber. The electrical resistance of individual EC monolayers was obtained by subtracting the resistance of the corresponding naked filter coated with Biomatrix as measured prior to seeding of the EC. Thus, TEER values represent the resistance of the EC monolayer solely and depend on the development of tight junctions between adjoining endothelial cells.

eosinophils [6] = assay: Metabolism in eosinophils after 5 min of incubation; conditions: 5 min of incubation, 37° C.
Experimental: as §1

[7] = Non-enzymatic metabolism during incubation at 37° C.; assay type: physicochemical; conditions: 60 min incubation at 37° C.
Experimental: In order to analyze if eosinophils can metabolize 14,15-LTC4 to 14,15-LTD4 and 14,15-LTE4, eosinophils were incubated with synthetic 14,15-LTC4 or 14 (R)-cysteinyl-glycyl-15(S)-hydroxy-5,8,10,12(Z,Z,E,E)-eicosatetraenoic acid (14,15-LTD4) for 60 min at 37° C. The metabolites formed were analyzed with product ion scan at 497.2 m/z for 14,15-LTD4 and 440.2 m/z for 14,15-LTE4. The retention time and mass spectrum of a product formed (Metabolite 2) from 14,15-LTC4 were identical to synthetic 14,15-LTD4 (FIG. 30B), and a product formed (Metabolite 3) after incubation with 14,15-LTD4 had identical retention time and mass spectrum as synthetic 14 (R)-cysteinyl-15(S)-hydroxy-5,8,10,12(Z,Z,E,E)-eicosatetraenoic (14,15-LTE4) (FIG. 30C). […] (data not shown). Basically, the product ion mass spectra of 14,15-leukotrienes and corresponding 5-lipoxygenase derived cysteinyl-leukotrienes are almost identical. However, 14,15-leukotrienes form a fragment at 205 m/z, whereas the corresponding fragment in 5-lipoxygenase derived cysteinyl-leukotrienes is at 189 m/z (FIG. 31). These collision induced dissociation products are probably formed by a cleavage next to the carbon where the cysteinyl group is positioned, which is at carbon 14 for 14,15-leukotrienes and carbon 6 for leukotrienes.

Q: With CCCCC/C=C\C/C=C\C/C=C\C/C=C\CCCC(=O)O [Arachidonic acid] as the compound, how does the “14,15-LTC4 released by mast cells” value [1] read?
A: 0.8+/−0.6 pmol/10^6 cells

Q: What about the “14,15-LTC4” value (eosinophils [2]) of the same compound?
A: 58 pmol/10^7 and 74 pmol/10^7 and 34 pmol/10^7 and 12 pmol/10^7 and 26 pmol/10^7 and 46 pmol/10^7 and 16 pmol/10^7 and 22 pmol/10^7 and 48 pmol/10^7 and 40 pmol/10^7 and 32 pmol/10^7

Q: What about the LTC4 (eosinophils [2]) of the same compound?
A: 34 pmol/10^7 and 12 pmol/10^7 and 20 pmol/10^7 and 0 pmol/10^7 (4×) and 6 pmol/10^7 and 10 pmol/10^7 and 38 pmol/10^7 and 22 pmol/10^7

Q: For CCCCC/C=C\C[C@@H](O)/C=C/C=C/C=C\[C@@H](O)CCCC(=O)O [LTB4, leukotriene B4], which “effect on EC barrier function” value [3] is on record?
A: no effect

Q: And the “oxygen free radical production by non-primed neutrophils” value (neutrophils; non-primed blood neutrophils, GM-CSF 100 ng/mL, LTB4 10^−7M, Eoxin 10^−8-10^−6M)?
A: induced the oxygen free radical production

Q: Which results are given for CCCCC[C@H](O)[C@@H](/C=C/C=C/C=C\C/C=C\CCCC(=O)O)SC[C@H](NC(=O)CC[C@H](N)C(=O)O)C(=O)NCC(=O)O [EoxC4, 14 (R)-glutathionyl-15 (S)-hydroxy-5,8,10,12 (Z,Z,E,E)-eicosatetraenoic acid]?
A: bronchoconstriction ([4]; Drazen et al. 1981): did not induce bronchoconstriction; contractile effects ([4]; guinea pig pulmonary parenchymal strip or ileum): appear not to have contractile effects; plasma leakage / change in TEER ([5]; 10^−7 and 10^−8 M): induce significant plasma leakage; potency relative to the most potent 5-lipoxygenase derived leukotrienes ([5]; FIG. 22): about five to ten times less potent; radical production by GM-CSF primed neutrophils (neutrophils; GM-CSF (10.5 ng/mL) primed, Eoxin 10^−8-10^−6M): induced the radical production by GM-CSF primed neutrophils in a dose-dependent manner; responders (neutrophils; GM-CSF primed neutrophils): 7-8 subjects of 13; metabolism in eosinophils (eosinophils [6]): almost no metabolism; non-enzymatic metabolism [7]: no non-enzymatic metabolism
